For two compounds, Activity results are on record in ChEMBL document CHEMBL2074011, “Comparison of furosemide and vinblastine secretion from cell lines overexpressing multidrug resistance protein (P-glycoprotein) and multidrug resistance-associated proteins (MRP1 and MRP2)” (Pharmacology, 2002).

Series [1] concerns the target ATP-binding cassette sub-family C member 2 (Homo sapiens, UniProt Q92887). Briefly: TP_TRANSPORTER: inhibition of Vinblastine transepithelial transport (basal to apical)(Vinblastine: 0.035 uM, Sulfinpyrazone: 1000 uM) in MRP2-expressing MDCKII cells. Type of series: functional, cell-based. As to conditions: dog, mdck-ii.
In series [2] the target is Multidrug resistance-associated protein 1 (Homo sapiens, UniProt P33527). Briefly: TP_TRANSPORTER: transepithelial transport (basal to apical) in MRP1-expressing LLC-PK1cell. Type of series: functional, cell-based. The settings on record: pig, llc-pk1.
Multidrug resistance-associated protein 1, sequence (P33527 whole entry): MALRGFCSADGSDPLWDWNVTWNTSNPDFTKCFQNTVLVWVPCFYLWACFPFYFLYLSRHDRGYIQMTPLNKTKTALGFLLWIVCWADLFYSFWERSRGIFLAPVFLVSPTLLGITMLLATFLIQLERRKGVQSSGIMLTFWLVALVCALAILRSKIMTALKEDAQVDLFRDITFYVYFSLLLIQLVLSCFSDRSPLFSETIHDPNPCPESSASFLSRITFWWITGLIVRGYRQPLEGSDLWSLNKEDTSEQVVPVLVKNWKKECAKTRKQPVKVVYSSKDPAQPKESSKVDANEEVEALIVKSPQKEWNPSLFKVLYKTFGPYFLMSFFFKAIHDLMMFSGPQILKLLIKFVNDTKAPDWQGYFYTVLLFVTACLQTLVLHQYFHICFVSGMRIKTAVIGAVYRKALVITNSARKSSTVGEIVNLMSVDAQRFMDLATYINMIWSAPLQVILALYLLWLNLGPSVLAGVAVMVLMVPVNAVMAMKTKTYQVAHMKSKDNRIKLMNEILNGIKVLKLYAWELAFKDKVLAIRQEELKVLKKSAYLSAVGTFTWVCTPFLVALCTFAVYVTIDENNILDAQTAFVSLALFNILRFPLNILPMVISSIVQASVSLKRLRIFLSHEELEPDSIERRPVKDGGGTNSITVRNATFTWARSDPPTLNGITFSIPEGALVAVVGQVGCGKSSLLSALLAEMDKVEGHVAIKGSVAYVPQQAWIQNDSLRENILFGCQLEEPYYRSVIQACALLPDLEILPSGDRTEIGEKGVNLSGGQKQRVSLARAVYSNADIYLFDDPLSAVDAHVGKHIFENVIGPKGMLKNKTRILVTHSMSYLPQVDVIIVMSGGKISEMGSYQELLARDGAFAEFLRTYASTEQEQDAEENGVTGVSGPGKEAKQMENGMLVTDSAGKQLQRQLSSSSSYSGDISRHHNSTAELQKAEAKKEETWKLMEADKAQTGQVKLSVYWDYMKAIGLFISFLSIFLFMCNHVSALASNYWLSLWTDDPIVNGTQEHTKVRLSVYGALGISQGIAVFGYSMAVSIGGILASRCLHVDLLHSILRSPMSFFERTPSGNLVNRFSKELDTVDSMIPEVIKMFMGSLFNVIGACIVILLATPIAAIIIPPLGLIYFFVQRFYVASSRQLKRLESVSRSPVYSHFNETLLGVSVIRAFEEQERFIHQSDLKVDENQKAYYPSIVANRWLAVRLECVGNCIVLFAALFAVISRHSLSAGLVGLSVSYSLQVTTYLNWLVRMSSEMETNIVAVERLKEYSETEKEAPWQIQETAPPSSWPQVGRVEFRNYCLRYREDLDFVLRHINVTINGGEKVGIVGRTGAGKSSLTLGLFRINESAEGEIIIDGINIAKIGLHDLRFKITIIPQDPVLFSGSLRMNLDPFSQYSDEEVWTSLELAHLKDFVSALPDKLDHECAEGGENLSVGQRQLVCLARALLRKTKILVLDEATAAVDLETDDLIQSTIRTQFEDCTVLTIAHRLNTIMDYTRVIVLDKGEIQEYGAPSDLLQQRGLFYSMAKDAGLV

ATP-binding cassette sub-family C member 2, sequence (Q92887 whole entry): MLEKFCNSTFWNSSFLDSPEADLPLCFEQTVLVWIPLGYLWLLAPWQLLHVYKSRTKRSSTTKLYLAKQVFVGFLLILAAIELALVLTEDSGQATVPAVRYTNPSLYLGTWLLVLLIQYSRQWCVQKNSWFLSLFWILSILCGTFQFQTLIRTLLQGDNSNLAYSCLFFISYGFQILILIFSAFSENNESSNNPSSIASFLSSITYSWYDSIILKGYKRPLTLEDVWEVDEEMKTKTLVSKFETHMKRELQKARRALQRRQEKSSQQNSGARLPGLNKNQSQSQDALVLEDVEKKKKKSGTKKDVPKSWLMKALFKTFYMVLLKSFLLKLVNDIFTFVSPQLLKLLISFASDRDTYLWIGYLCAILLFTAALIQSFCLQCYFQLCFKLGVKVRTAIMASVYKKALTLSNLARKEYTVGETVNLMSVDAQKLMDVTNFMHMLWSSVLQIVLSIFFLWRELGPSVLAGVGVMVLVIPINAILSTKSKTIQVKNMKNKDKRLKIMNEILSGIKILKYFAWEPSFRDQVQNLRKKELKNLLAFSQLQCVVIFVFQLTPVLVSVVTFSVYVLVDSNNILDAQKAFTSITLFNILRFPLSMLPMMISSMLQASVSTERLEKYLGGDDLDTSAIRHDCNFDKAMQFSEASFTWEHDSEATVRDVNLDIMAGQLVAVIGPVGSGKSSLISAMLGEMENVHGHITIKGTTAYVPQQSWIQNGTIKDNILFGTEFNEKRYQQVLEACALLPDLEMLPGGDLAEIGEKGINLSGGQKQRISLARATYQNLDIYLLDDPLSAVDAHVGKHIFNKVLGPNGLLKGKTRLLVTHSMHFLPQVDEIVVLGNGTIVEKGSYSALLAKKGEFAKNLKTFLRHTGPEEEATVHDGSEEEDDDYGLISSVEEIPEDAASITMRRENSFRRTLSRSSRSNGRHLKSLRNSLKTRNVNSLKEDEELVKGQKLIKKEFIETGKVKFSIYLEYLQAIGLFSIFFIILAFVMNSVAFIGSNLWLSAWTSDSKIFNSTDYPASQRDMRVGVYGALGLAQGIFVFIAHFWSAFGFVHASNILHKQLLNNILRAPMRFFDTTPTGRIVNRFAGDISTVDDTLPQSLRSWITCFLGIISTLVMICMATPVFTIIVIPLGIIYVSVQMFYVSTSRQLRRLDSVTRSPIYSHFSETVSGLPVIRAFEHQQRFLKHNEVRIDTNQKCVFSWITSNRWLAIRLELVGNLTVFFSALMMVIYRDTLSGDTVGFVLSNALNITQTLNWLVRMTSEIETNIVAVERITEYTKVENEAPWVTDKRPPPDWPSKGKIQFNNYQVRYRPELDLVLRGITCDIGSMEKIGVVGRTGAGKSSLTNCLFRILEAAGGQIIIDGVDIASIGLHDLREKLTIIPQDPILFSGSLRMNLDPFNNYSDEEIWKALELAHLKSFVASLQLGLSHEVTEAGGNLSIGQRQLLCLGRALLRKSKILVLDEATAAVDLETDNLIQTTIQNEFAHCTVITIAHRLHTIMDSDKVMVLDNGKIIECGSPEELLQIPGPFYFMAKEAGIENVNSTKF

On to `O=C1C(CC[S+]([O-])c2ccccc2)C(=O)N(c2ccccc2)N1c1ccccc1` (configuration not stated) [SULFINPYRAZONE], for which, in series [1], the Activity result was “inhibitor [+]”. As to `CC[C@]1(O)C[C@@H]2CN(CCc3c([nH]c4ccccc34)[C@@](C(=O)OC)(c3cc4c(cc3OC)N(C)[C@H]3[C@@](O)(C(=O)OC)[C@H](OC(C)=O)[C@]5(CC)C=CCN6CC[C@]43[C@@H]65)C2)C1` [VINBLASTINE], the Activity result in series [2] is “substrate [+]”.
